Measurements: patent US9371295B2, “Compounds for use in the treatment of disorders that are ameliorated by inhibition of HDAC” (IRBM—Science Park S.p.A., priority 2012, dated 2016)

Columns and labels:
[1] = tested on: HDAC in Hela cells; assay: HDAC Hela Cell Based assay
[2] = tested on: human γ-globin promoter (EGFP reporter) in K562 cells; assay: HbF activation assay on K562 (EGFP/RFP reporter model system for screening of inducers of fetal hemoglobin); format: cell-based; conditions: 60 hours
Description: In order to test several compounds, a model system was produced based on previous findings present in the literature. The K562 erythroid-like cell lines, isolated and characterized by Lozzio & Lozzio (Blood, 45(3), pp 321-334) from a patient with chronic myelogenous leukemia in blast crisis, have been extensively employed as a useful in vitro model to study the molecular mechanism(s) regulating the expression of embryonic and fetal human globin genes, as well as for screening of new differentiation-inducing compounds. A stable cell line where reporter genes encoding green EGFP and far-red fluorescent protein red-FP are placed under the control of the human γ-globin or β-globin promoters respectively was used (see Vadolas et al, Hum. Mol. Genet. 2004, 13, 2, 223-233 for details). The modified 3-cluster also contains the upstream regulatory region called LCR. This cell line grows in suspension at 37° C. and 5% CO2 in humidified atmosphere in the following medium: DMEM, 10% foetal bovine serum, glutamine and antibiotics (penicillin and streptomycin);
The assay procedures is as follows: • Single concentration compounds or serially diluted samples are transferred to an empty assay plates by a spotter (ATS-100, EDC Biosystems, USA) in order to have a final concentration of DMSO of 0.25% in 50 μL of cell culture. Source plats contains compounds dissolved in 100% DMSO • Black, transparent bottom, 384 wells, tissue culture treated plates are used as assay plates. • Assay plates containing spotted compounds are filled with a suspension of cell in the described assay medium. The final cell concentration is of 1000 cells per well. • Cells are incubated in humidified atmosphere, 37° C.-5% CO2, for 60 hours • Cell nuclei are stained by adding 10 ul (6 μM; 1 μM final) Hoechst 33342 (Life Technologies, USA) • The cell associated intensity is read by a plate based cytometer (ACUMEN explorer, TTP Labtech, UK) • The nuclei count is used to assess the cell proliferation/death and to normalize the total EGFP/RFP intensity. HbF Activation Assay in Human Cell Line K562
The compounds of the invention were tested in the HbF activation assay on K562, as model system for screening of potential inducers of fetal hemoglobin.

[3] = molecular target: T1, HDAC1 (Homo sapiens, UniProt Q13547); assay: HDAC1 assay (Fluor-de-Lys fluorescent deacetylase assay); format: biochemical; conditions: read-out: hHDAC IC50
T1 construct: made in house
T1 sequence (Q13547 whole entry): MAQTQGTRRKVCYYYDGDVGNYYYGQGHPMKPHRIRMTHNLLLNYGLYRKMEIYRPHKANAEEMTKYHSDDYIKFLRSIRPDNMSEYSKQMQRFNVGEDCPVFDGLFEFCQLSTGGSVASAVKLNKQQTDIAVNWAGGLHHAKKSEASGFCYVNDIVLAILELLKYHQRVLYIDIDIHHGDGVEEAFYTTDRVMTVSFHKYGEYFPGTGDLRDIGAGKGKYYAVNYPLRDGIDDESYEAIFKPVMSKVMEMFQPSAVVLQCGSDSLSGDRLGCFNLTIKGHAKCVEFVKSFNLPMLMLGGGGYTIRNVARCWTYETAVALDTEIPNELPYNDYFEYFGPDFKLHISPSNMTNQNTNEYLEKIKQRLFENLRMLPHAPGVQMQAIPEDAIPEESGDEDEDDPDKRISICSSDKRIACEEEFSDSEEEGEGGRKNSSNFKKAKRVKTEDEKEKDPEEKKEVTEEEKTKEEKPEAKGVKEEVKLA
Protocol: The HDAC1 assay is used to quantify the histone deacetylase (HDAC) activity. The assay is performed in 384 well microtiter plates by pre-incubating serial dilutions of the compounds with a fixed concentration of HeLa nuclear extract or purified HDAC1 and then adding an acetylated lysine-containing substrate/developer that fluoresces upon deacetylation.
Reagents of the HDAC Fluorescent Activity Assay are purchased from BioMol Research Laboratories (Plymouth Meeting, Pa.) and feature the Fluor-de-Lys™ Substrate/Developer System.
TSA Stock: TSA is provided as a 10 mM stock solution in 100% dimethylsulfoxide (DMSO). […] The final concentration in the assay is 20 uM.
3 uM [final] TSA to this solution increases its ability to stop the reaction.
HDAC1 Working Solution: The HDAC1 enzyme is diluted in assay buffer prior to each use from a fresh aliquot of enzyme. The final concentration in the assay is 1-2 nM.
Compounds: Test compounds are directly transferred from a 100% DMSO solution into assay plates by spotting nanoliters of solutions by an acoustic dispenser (ATS-100, EDC biosystems, US).
HeLa cells transiently transfected with pCDNA3-HDAC1-FLAG are grown to 80% confluence on 10 cm culture dishes in DMEM, 10% Fetal bovine serum supplemented with antibiotics and glutamine. Cells are washed with 10 ml cold PBS and scraped into 2 ml of PBS. Cells are centrifuged for 5 minutes at 800×g at 4° C., washed with 30 ml PBS and resuspended in 10 ml PBS, counted, re-centrifuged and frozen at −80° C.
The frozen cell pellet is re-suspended in 1 ml of hypotonic lysis buffer (LB: 20 mM Hepes pH7.9, 0.25 mM EDTA, 10% glycerol) containing COMPLETE protease inhibitor and incubated on ice for 15 minutes, followed by homogenization on a 2-ml DounceB homogenizer (25 strokes). 150 mM KCl and 0.5% NP-40 are added to the homogenate and the solution is sonicated twice for 30 seconds (output5/6, duty cycle 90) and incubated for 1 hour at 4° C. After a 30 minutes centrifugation at 12000 rpm and 4° C. the supernatant (soluble extract) is collected and protein concentration is determined using the BIORAD assay.
Anti-FLAG M2 affinity resin (Sigma) is washed three times with TBS and twice with LB. 10 μl of the LB-washed resin/mg of protein (2-3 ug of Flagged-HDAC1) are added to the soluble extract (1 mL) and incubated overnight at 4° C. with gentle mixing. The resin is then collected by centrifugation, washed once with LB, twice with LB+0.1% NP40 and twice with elution buffer (50 mM Hepes pH 7.4, 5% glycerol, 100 mM KCl, 0.01% Triton X-100).
The concentration of purified HDAC is determined by Western blot analysis.

Row | SMILES | IC50 [1] | EC50 [2] | IC50 [3]
1 | CCC(=O)CCCCC[C@H](NC(=O)C1CN(C)C1)c1ncc(-c2ccc(-c3ccc(OC)nc3)cc2)o1 [Compound 65, (S)-N-(1-(5-(4-(6-methoxypyridin-3-yl)phenyl)oxazol-2-yl)-7-oxononyl)-1-methylazetidine-3-carboxamide] | 100 to 1000 nM | > 1000 nM | < 100 nM
2 | CCC(=O)CCCCC[C@H](NC(=O)[C@@H]1C[C@H](F)CN1C)c1ncc(-c2cc3ccccc3nc2OC)o1 [Compound 66, (2S,4S)-4-fluoro-N-((S)-1-(5-(2-methoxyquinolin-3-yl)oxazol-2-yl)-7-oxononyl)-1-methylpyrrolidine-2-carboxamide] | 100 to 1000 nM | > 1000 nM | < 100 nM
3 | CCC(=O)CCCCC[C@H](NC(=O)C1(F)CCN(C)CC1)c1ncc(-c2cc3ccccc3nc2OC)o1 [Compound 68, (S)-4-fluoro-N-(1-(5-(2-methoxyquinolin-3-yl)oxazol-2-yl)-7-oxononyl)-1-methylpiperidine-4-carboxamide] | 100 to 1000 nM | > 1000 nM | < 100 nM
4 | CCC(=O)CCCCC[C@H](NC(=O)C(=O)N1CCOCC1)c1ncc(-c2cc3ccccc3nc2OC)o1 [Compound 69, (S)-N-(1-(5-(2-methoxyquinolin-3-yl)oxazol-2-yl)-7-oxononyl)-2-morpholino-2-oxoacetamide] | 100 to 1000 nM | > 1000 nM | < 100 nM
5 | CCC(=O)CCCCC[C@H](NC(=O)C1CN(C)C1)c1ncc(-c2cccc3cccnc23)o1 [Compound 70, (S)-1-methyl-N-(7-oxo-1-(5-(quinolin-8-yl)oxazol-2-yl)nonyl)azetidine-3-carboxamide] | 100 to 1000 nM | > 1000 nM | < 100 nM
6 | CCC(=O)CCCCC[C@H](NC(=O)C1CN(C)C1)c1nnc(-c2cc3ccccc3n(C)c2=O)o1 [Compound 71, (S)-1-methyl-N-(1-(5-(1-methyl-2-oxo-1,2-dihydroquinolin-3-yl)-1,3,4-oxadiazol-2-yl)-7-oxononyl)azetidine-3-carboxamide] | 100 to 1000 nM | > 1000 nM | < 100 nM
7 | CCC(=O)CCCCC[C@H](NC(=O)C1CNC(=O)C1)c1ncc(-c2cc3ccccc3nc2OC)o1 (stereo partly drawn) [Compound 72, N-((S)-1-(5-(2-methoxyquinolin-3-yl)oxazol-2-yl)-7-oxononyl)-5-oxopyrrolidine-3-carboxamide] | 100 to 1000 nM | 100 to 1000 nM | < 100 nM
8 | CCC(=O)CCCCC[C@H](NC(=O)Cc1c[nH]cn1)c1ncc(-c2cc3ccccc3nc2OC)o1 [Compound 73, (S)-2-(1H-imidazol-4-yl)-N-(1-(5-(2-methoxyquinolin-3-yl)oxazol-2-yl)-7-oxononyl)acetamide] | 100 to 1000 nM | > 1000 nM | < 100 nM
9 | CCC(=O)CCCCC[C@H](NC(=O)Cc1cccnc1)c1ncc(-c2cc3ccccc3nc2OC)o1 [Compound 74, (S)-N-(1-(5-(2-methoxyquinolin-3-yl)oxazol-2-yl)-7-oxononyl)-2-(pyridin-3-yl)acetamide] | 100 to 1000 nM | > 1000 nM | < 100 nM
10 | CCC(=O)CCCCC[C@H](NC(=O)CCn1ccnc1)c1ncc(-c2cc3ccccc3nc2OC)o1 [Compound 75, (S)-3-(1H-imidazol-1-yl)-N-(1-(5-(2-methoxyquinolin-3-yl)oxazol-2-yl)-7-oxononyl)propanamide] | 100 to 1000 nM | 100 to 1000 nM | < 100 nM
11 | CCC(=O)CCCCC[C@H](NC(=O)Cc1nccs1)c1ncc(-c2cc3ccccc3nc2OC)o1 [Compound 76, (S)-N-(1-(5-(2-methoxyquinolin-3-yl)oxazol-2-yl)-7-oxononyl)-2-(thiazol-2-yl)acetamide] | 100 to 1000 nM | > 1000 nM | < 100 nM
12 | CCC(=O)CCCCC[C@H](NC(=O)Cc1nonc1C)c1ncc(-c2cc3ccccc3nc2OC)o1 [Compound 77, (S)-N-(1-(5-(2-methoxyquinolin-3-yl)oxazol-2-yl)-7-oxononyl)-2-(4-methyl-1,2,5-oxadiazol-3-yl)acetamide] | 100 to 1000 nM | > 1000 nM | < 100 nM
13 | CCC(=O)CCCCC[C@H](NC(=O)Cn1ccc(C)n1)c1ncc(-c2cc3ccccc3nc2OC)o1 [Compound 78, (S)-N-(1-(5-(2-methoxyquinolin-3-yl)oxazol-2-yl)-7-oxononyl)-2-(3-methyl-1H-pyrazol-1-yl)acetamide] | 100 to 1000 nM | > 1000 nM | < 100 nM
14 | CCC(=O)CCCCC[C@H](NC(=O)Cc1ncccn1)c1ncc(-c2cc3ccccc3nc2OC)o1 [Compound 79, (S)-N-(1-(5-(2-methoxyquinolin-3-yl)oxazol-2-yl)-7-oxononyl)-2-(pyrimidin-2-yl)acetamide] | 100 to 1000 nM | > 1000 nM | < 100 nM
15 | CCC(=O)CCCCC[C@H](NC(=O)Cn1nc(C)cc1C)c1ncc(-c2cc3ccccc3nc2OC)o1 [Compound 81, (S)-2-(3,5-dimethyl-1H-pyrazol-1-yl)-N-(1-(5-(2-methoxyquinolin-3-yl)oxazol-2-yl)-7-oxononyl)acetamide] | 100 to 1000 nM | > 1000 nM | < 100 nM
16 | CCC(=O)CCCCC[C@H](NC(=O)c1sc(C)nc1C)c1ncc(-c2cc3ccccc3nc2OC)o1 [Compound 83, (S)-N-(1-(5-(2-methoxyquinolin-3-yl)oxazol-2-yl)-7-oxononyl)-2,4-dimethylthiazole-5-carboxamide] | 100 to 1000 nM | > 1000 nM | < 100 nM
17 | CCC(=O)CCCCC[C@H](NC(=O)C1(C)CN(C)C1)c1ncc(-c2cc3ccccc3nc2OC)o1 [Compound 84, (S)-N-(1-(5-(2-methoxyquinolin-3-yl)oxazol-2-yl)-7-oxononyl)-1,3-dimethylazetidine-3-carboxamide] | 100 to 1000 nM | 100 to 1000 nM | < 100 nM
18 | CCC(=O)CCCCC[C@H](NC(=O)C1CCN1C)c1ncc(-c2cc3ccccc3nc2OC)o1 (stereo partly drawn) [Compound 85, N-((S)-1-(5-(2-methoxyquinolin-3-yl)oxazol-2-yl)-7-oxononyl)-1-methylazetidine-2-carboxamide] | 100 to 1000 nM | > 1000 nM | < 100 nM
19 | CCC(=O)CCCCC[C@H](NC(=O)Cn1cncn1)c1ncc(-c2cc3ccccc3nc2OC)o1 [Compound 86, (S)-N-(1-(5-(2-methoxyquinolin-3-yl)oxazol-2-yl)-7-oxononyl)-2-(1H-1,2,4-triazol-1-yl)acetamide] | 100 to 1000 nM | > 1000 nM | < 100 nM
20 | CCC(=O)CCCCC[C@H](NC(=O)c1ccnn1C)c1ncc(-c2cc3ccccc3nc2OC)o1 [Compound 87, (S)-N-(1-(5-(2-methoxyquinolin-3-yl)oxazol-2-yl)-7-oxononyl)-1-methyl-1H-pyrazole-5-carboxamide] | 100 to 1000 nM | 100 to 1000 nM | < 100 nM
